SMILES strings stand for the structures. Where two headings read alike, the source gives them in different places.

What all share (format): cell-based, human
Experiment [1] deals with NCI-H358 (K-Ras G12C). The experiment in a line: CellTiter-Glo cell viability assay, H358. The settings on record: Homo sapiens, NCI-H358, 120 h. How it is done: (§1) Note—The following protocol describes a procedure for monitoring cell viability of K-Ras mutant cancer cell lines in response to a compound of the invention. Other RAS isoforms may be employed, though the number of cells to be seeded will vary based on cell line used.
(§2) Test compounds (132.5 nL) were directly dispensed into the assay plates containing cells. […] On day 5, assay plates and their contents were equilibrated to room temperature for approximately 30 minutes. […] Luminescence was measured using the PerkinElmer Enspire. Data were normalized by the following: (Sample signal/Avg. DMSO)*100. The data were fit using a four-parameter logistic fit.

For experiment [2], the system named is AsPC-1 (K-Ras G12D). The experiment is described as follows: Potency assay: pERK. The conditions noted are these: Homo sapiens. The procedure, abridged:
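pERK decrease measured after 4 h compound treatment at 37 °C (10 three-fold dilutions, duplicate wells), by either fixed-cell In-Cell Western with DRAQ5 counterstain or AlphaLISA on lysates. Signal fitted against log concentration with a four-parameter model to give IC50.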

The subject of experiment [3] is AsPC-1 (K-Ras G12D). The experiment in a line: CellTiter-Glo cell viability assay, AsPC-1. The settings on record: read-out: AsPC-1 Cell Viability IC50. The protocol: as §1, §2
In general terms: ATP-based viability assays read luminescence as a measure of living cells.

Setting [4] is: read-out: H358 Cell Viability IC50, K-Ras G12C, 5-day treatment.

By IC50 is commonly meant the concentration that inhibits the measured activity by half. What is called EC50 is the concentration at which the effect is half-maximal. Take `CCC(C)N(C)C(=O)c1cncc(-c2c3c4cc(ccc4n2CC)-c2cc(O)cc(c2)C[C@H](NC(=O)[C@H](C(C)C)N(C)C(=O)CN(C)C(=O)[C@H]2CN2)C(=O)N2CCC[C@H](N2)C(=O)OCC(C)(C)C3)c1` (stereo partly drawn) [Example 144]: the IC50 in experiment [1] (setting [4]) lay within 10 to 100 nM; in experiment [3] (Homo sapiens, ASPC1, 120 h), 100 to 1000 nM. For the same compound, in experiment [2] (ASPC1, read-out: pERK EC50), the concentration giving a half-maximal response (EC50) was less than 5000 nM.
On the same counts, the results for `CCn1c(-c2cccnc2[C@H](C)OC)c2c3cc(ccc31)-c1cc(O)cc(c1)C[C@H](NC(=O)[C@H](C(C)C)N(C)C(=O)CN(C)C(=O)[C@@H]1N[C@H]1COC)C(=O)N1CCC[C@H](N1)C(=O)OCC(C)(C)C2` [Example 85] are 10 to 100 nM, 1000 to 10000 nM and less than 5000 nM.
Consider `CC[C@H]1N[C@H]1C(=O)N(C)CC(=O)N(C)[C@H](C(=O)N[C@H]1Cc2cc(O)cc(c2)-c2ccc3c(c2)c(c(-c2cccnc2[C@H](C)OC)n3CC)CC(C)(C)COC(=O)[C@@H]2CCCN(N2)C1=O)C(C)C` [Example 262], for which the IC50 in experiment [1] (setting [4]) lay in the range of 10 to 100 nM; in experiment [3] (Homo sapiens, ASPC1, 120 h), 100 to 1000 nM. Moreover, the EC50 in experiment [2] (ASPC1, read-out: pERK EC50) is less than 5000 nM.
As for `CCn1c(-c2cccnc2[C@H](C)OC)c2c3cc(ccc31)-c1cc(O)cc(c1)C[C@H](NC(=O)[C@H](C1CCCC1)N1CC[C@]3(CCN(C(=O)[C@@H]4N[C@@H]4C4CC4)C3)C1=O)C(=O)N1CCC[C@H](N1)C(=O)OCC(C)(C)C2` [Example 214, (2S)-2-cyclopentyl-2-((S)-7-((2R,3R)-3-cyclopropylaziridine-2-carbonyl)-1-oxo-2,7-diazaspiro[4.4]nonan-2-yl)-N-((6^3S,4S)-1^1-ethyl-25-hydroxy-1^2-(2-((S)-1-methoxyethyl)pyridin-3-yl)-10,10-dimethyl-5,7-dioxo-6^1,6^2,6^3,6^4,6^5,6^6-hexahydro-1^1H-8-oxa-1 (5,3)-indola-6 (1,3)-pyridazina-2 (1,3)-benzenacycloundecaphane-4-yl) acetamide], the IC50 was 10 to 100 nM in experiment [1] (K-Ras G12C, 5-day treatment, read-out: H358 Cell Viability IC50) and 10 to 100 nM in experiment [3] (Homo sapiens, ASPC1, 120 h, K-Ras G12D, 5-day treatment). Besides, in experiment [2] (ASPC1, AsPC-1 KRAS G12D, read-out: pERK EC50), the EC50 was less than 5000 nM.
Regarding `CCn1c(-c2cccnc2[C@H](C)OC)c2c3cc(ccc31)-c1cc(O)cc(c1)C[C@H](NC(=O)[C@H](C(C)C)N(C)C(=O)CN(C)C(=O)[C@H]1CN1C(C)C)C(=O)N1CCC[C@H](N1)C(=O)OCC(C)(C)C2` (stereo partly drawn) [Example 142], the IC50 in experiment [1] (setting [4]) is less than 10 nM; in experiment [3] (Homo sapiens, ASPC1, 120 h), 100 to 1000 nM. The EC50 in experiment [2] (ASPC1, read-out: pERK EC50) was less than 5000 nM.
For the compound `CCn1c(-c2cnccc2COC)c2c3cc(ccc31)-c1cc(O)cc(c1)C[C@H](NC(=O)[C@H](C(C)C)N(C)C(=O)CN(C)C(=O)[C@@H]1CN1Cc1ccccc1)C(=O)N1CCC[C@H](N1)C(=O)OCC(C)(C)C2` (stereo partly drawn) [Example 10], the IC50 in experiment [1] (setting [4]) fell in the range of 10 to 100 nM; in experiment [3] (Homo sapiens, ASPC1, 120 h), 1000 to 10000 nM. The EC50 in experiment [2] (ASPC1, read-out: pERK EC50) was less than 5000 nM.
For `CCn1c(-c2cccnc2[C@H](C)OC)c2c3cc(ccc31)-c1cc(O)cc(c1)C[C@H](NC(=O)[C@H](C(C)C)N(C)C(=O)CN(C)C(=O)[C@H]1N[C@@H]1C1CC1)C(=O)N1CCC[C@H](N1)C(=O)OCC(C)(C)C2` [Example 136], the IC50 in experiment [1] (setting [4]) was less than 10 nM; in experiment [3] (K-Ras G12D, 5-day treatment) it was 100 to 1000 nM. For the same compound, the 50% effective concentration (EC50) in experiment [2] (ASPC1, read-out: pERK EC50) was less than 5000 nM.
For `CCn1c(-c2cccnc2[C@H](C)OC)c2c3cc(ccc31)-c1cc(O)cc(c1)C[C@H](NC(=O)[C@H](C(C)C)N(C)C(=O)CN(C)C(=O)[C@@H]1N[C@H]1C1COC1)C(=O)N1CCC[C@H](N1)C(=O)OCC(C)(C)C2` [Example 283], the IC50 in experiment [1] (setting [4]) lay in the range of 10 to 100 nM; in experiment [3] (Homo sapiens, ASPC1, 120 h), 100 to 1000 nM. For the same compound, in experiment [2] (ASPC1, read-out: pERK EC50), the EC50 was less than 5000 nM.
In the case of `CCn1c(-c2cccnc2[C@H](C)OC)c2c3cc(ccc31)-c1cc(O)cc(c1)C[C@H](NC(=O)[C@H](C(C)C)N(C)C(=O)[C@H](C)N(C)C(=O)[C@H]1CN1)C(=O)N1CCC[C@H](N1)C(=O)OCC(C)(C)C2` [Example 102], the IC50 in experiment [1] (setting [4]) lay in the range of 10 to 100 nM; in experiment [3] (Homo sapiens, ASPC1, 120 h) it was 100 to 1000 nM. For the same compound, in experiment [2] (ASPC1, read-out: pERK EC50), the EC50 was less than 5000 nM.

The values above are taken from US20250195521A1 (Revolution Medicines, Inc., priority 2020, published 2025).
